Measured values reported in patent US20120225061A1, “TETRASUBSTITUTED CYCLOHEXYL COMPOUNDS AS KINASE INHIBITORS” (priority 2011, published 2012).
pEC50, pIC50: −log10 of the molar value.

What was measured:
Pim1 kinase = Pim1 kinase (Homo sapiens, UniProt P11309); test: KinaseGlo Pim1 ATP depletion assay; assay type: biochemical; conditions: Table 4, 2.5 nM PIM1, 20 μM ATP, 40 μM BAD peptide
Protocol: The activity of PIM1 is measured using a luciferase-luciferin based ATP detection reagent to quantify ATP depletion resulting from kinase-catalyzed phosphoryl transfer to a peptide substrate. Compounds to be tested are dissolved in 100% DMSO and directly distributed into white 384-well plates at 0.5 μl per well. […] After 15 minutes, 10 μl of 40 μM ATP in assay buffer is added. […] The reaction is performed until approximately 50% of the ATP is depleted, then stopped with the addition of 20 μl KinaseGlo Plus (Promega Corporation) solution. The stopped reaction is incubated for 10 minutes and the remaining ATP detected via luminescence on the Victor2 (Perkin Elmer).

Pim2 kinase = Pim2 kinase (Homo sapiens, UniProt Q9P1W9); test: KinaseGlo Pim2 ATP depletion assay; assay type: biochemical; conditions: Table 4, 5 nM PIM2, 4 μM ATP, 10 μM BAD peptide
Protocol: (§1) The activity of PIM2 is measured using a luciferase-luciferin based ATP detection reagent to quantify ATP depletion resulting from kinase-catalyzed phosphoryl transfer to a peptide substrate. Compounds to be tested are dissolved in 100% DMSO and directly distributed into white 384-well plates at 0.5 μl per well. […] After 15 minutes, 10 μl of 8 μM ATP in assay buffer is added. Final assay concentrations are 5 nM PIM2, 4 μM ATP, 10 μM BAD peptide and 2.5% DMSO. The reaction is performed until approximately 50% of the ATP is depleted, then stopped with the addition of 20 μl KinaseGlo Plus (Promega Corporation) solution. The stopped reaction is incubated for 10 minutes and the remaining ATP detected via luminescence on the Victor2 (Perkin Elmer).

Pim3 kinase = Pim3 kinase (Homo sapiens, UniProt Q86V86); test: KinaseGlo Pim3 ATP depletion assay; assay type: biochemical; conditions: Table 4, 40 μM ATP, 100 μM BAD peptide
Protocol: as §1, with “of PIM3” for “of PIM2”, “of 80” for “of 8”, “nM PIM1, 40” for “nM PIM2, 4”, “ATP, 100” for “ATP, 10”, “stopped by” for “stopped with”

[1] = tested on: KMS11 (human myeloma cell line); test: Cell proliferation assay (CellTiter-Glo) in KMS11 cells; assay type: cell-based; conditions: KMS-11, 72 h, Table 4, 3 days, read-out: KMS11-luc EC50
Summary of the method: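 KMS11 cells at 2000 per well in IMDM/10% FBS were exposed to compound for 3 days. Viability was read by CellTiter-Glo luminescence.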

Chain of Pim1 kinase (P11309 whole entry): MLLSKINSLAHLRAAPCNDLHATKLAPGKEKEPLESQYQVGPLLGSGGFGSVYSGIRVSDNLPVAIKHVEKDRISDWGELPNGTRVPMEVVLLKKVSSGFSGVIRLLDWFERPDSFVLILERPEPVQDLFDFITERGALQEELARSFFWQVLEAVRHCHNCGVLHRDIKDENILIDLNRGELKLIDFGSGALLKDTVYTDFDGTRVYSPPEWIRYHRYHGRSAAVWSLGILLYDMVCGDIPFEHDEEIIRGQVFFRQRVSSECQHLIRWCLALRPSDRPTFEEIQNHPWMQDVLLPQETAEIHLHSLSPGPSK
Chain of Pim2 kinase (Q9P1W9 whole entry): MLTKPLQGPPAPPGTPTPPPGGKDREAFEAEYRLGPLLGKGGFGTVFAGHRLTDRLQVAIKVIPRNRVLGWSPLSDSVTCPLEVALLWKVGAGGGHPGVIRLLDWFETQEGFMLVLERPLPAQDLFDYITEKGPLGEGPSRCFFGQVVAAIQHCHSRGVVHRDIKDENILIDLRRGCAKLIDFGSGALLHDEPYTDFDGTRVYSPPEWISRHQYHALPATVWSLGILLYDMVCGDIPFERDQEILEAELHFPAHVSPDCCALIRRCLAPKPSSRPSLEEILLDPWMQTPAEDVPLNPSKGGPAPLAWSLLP

pIC50 (Pim1 kinase) | pIC50 (Pim2 kinase) | pIC50 (Pim3 kinase) | pEC50 [1] | SMILES
8.82 | 8.27 | 8.64 | 5.07 | COC(=O)c1ccc(F)c(-c2ccc(N)c(C(=O)Nc3cnccc3[C@H]3C[C@@H](O)[C@](C)(O)[C@@H](C)C3)n2)n1 [Example 137, methyl 5′-amino-6′-(4-((1R,3R,4R,5S)-3,4-dihydroxy-4,5-dimethylcyclohexyl)pyridin-3-ylcarbamoyl)-3-fluoro-2,2′-bipyridine-6-carboxylate]
6.68 | 5.54 | 6.41 | ≤ 5.00 | C[C@@H]1C[C@H](c2ccncc2NC(=O)c2ccnc(-c3c(F)cccc3F)n2)C[C@H](O)[C@]1(O)CO [Example 40, 2-(2,6-difluorophenyl)-N-(4-((1S,3S,4R,5R)-3,4-dihydroxy-4-(hydroxymethyl)-5-methylcyclohexyl)pyridin-3-yl) pyrimidine-4-carboxamide]
9.22 | 8.46 | 8.82 | 5.32 | COc1cc(F)c(-c2cccc(C(=O)Nc3cnccc3[C@H]3C[C@@H](O)[C@](C)(O)[C@@H](C)C3)n2)c(F)c1 [Example 50, 6-(2,6-difluoro-4-methoxyphenyl)-N-(4-((1R,3R,4R,5S)-3,4-dihydroxy-4,5-dimethylcyclohexyl)pyridin-3-yl) picolinamide]
8.70 | 7.87 | 8.44 | 5.01 | C[C@H]1C[C@@H](c2ccncc2NC(=O)c2nc(-c3nccs3)ccc2N)C[C@@H](O)[C@]1(C)O [Example 52, 3-amino-N-(4-((1R,3R,4R,5S)-3,4-dihydroxy-4,5-dimethylcyclohexyl)pyridin-3-yl)-6-(thiazol-2-yl) picolinamide]
7.35 | 6.07 | 6.36 | ≤ 5.00 | CC[C@]1(O)[C@H](C)C[C@H](c2ccncc2NC(=O)c2ccc(F)c(-c3c(F)cccc3F)n2)C[C@@H]1O [Example 42, 6-(2,6-difluorophenyl)-N-(4-((1S,3S,4S,5R)-4-ethyl-3,4-dihydroxy-5-methylcyclohexyl)pyridin-3-yl)-5-fluoropicolinamide]
7.71 | 5.77 | 6.48 | ≤ 5.00 | C[C@@H]1C[C@H](c2ccncc2NC(=O)c2ccc(F)c(-c3c(F)cccc3F)n2)C[C@H](O)[C@]1(O)CO [Example 60, 6-(2,6-difluorophenyl)-N-(4-((1S,3S,4R,5R)-3,4-dihydroxy-4-(hydroxymethyl)-5-methylcyclohexyl)pyridin-3-yl)-5-fluoropicolinamide]
8.77 | 7.89 | 8.59 | ≤ 5.00 | Cc1ccc(F)c(-c2ccc(N)c(C(=O)Nc3cnccc3[C@H]3C[C@@H](O)[C@](C)(O)[C@@H](C)C3)n2)n1 [Example 138, 5-amino-N-(4-((1R,3R,4R,5S)-3,4-dihydroxy-4,5-dimethylcyclohexyl)pyridin-3-yl)-3′-fluoro-6′-methyl-2,2′-bipyridine-6-carboxamide]
8.12 | 6.88 | 7.82 | ≤ 5.00 | Cc1nn(C)cc1-c1ccc(N)c(C(=O)Nc2cnccc2[C@H]2C[C@@H](O)[C@](C)(O)[C@@H](C)C2)n1 [Example 140, 3-amino-N-(4-((1R,3R,4R,5S)-3,4-dihydroxy-4,5-dimethylcyclohexyl)pyridin-3-yl)-6-(1,3-dimethyl-1H-pyrazol-4-yl)picolinamide]
7.31 | 6.17 | 6.82 | ≤ 5.00 | CC[C@]1(O)[C@H](C)C[C@H](c2ccncc2NC(=O)c2nc(-c3c(F)cccc3F)ncc2N)C[C@@H]1O [Example 35, 5-amino-2-(2,6-difluorophenyl)-N-(4-((1S,3S,4S,5R)-4-ethyl-3,4-dihydroxy-5-methylcyclohexyl)pyridin-3-yl) pyrimidine-4-carboxamide]
9.00 | 8.34 | 8.72 | 5.24 | C[C@H]1C[C@@H](c2ccncc2NC(=O)c2nc(-c3nc(Cl)ccc3F)ccc2N)C[C@@H](O)[C@]1(C)O [Example 136, 5-amino-6′-chloro-N-(4-((1R,3R,4R,5S)-3,4-dihydroxy-4,5-dimethylcyclohexyl)pyridin-3-yl)-3′-fluoro-2,2′-bipyridine-6-carboxamide]
9.52 | 8.82 | 8.89 | 5.97 | C[C@H]1C[C@@H](c2ccncc2NC(=O)c2ccc(F)c(-c3c(F)cccc3F)n2)C[C@@H](O)C1(O)CO (stereo in doubt) [Example 59, 6-(2,6-difluorophenyl)-N-(4-((1R,3R,4R,5S)-3,4-dihydroxy-4-(hydroxymethyl)-5-methylcyclohexyl)pyridin-3-yl)-5-fluoropicolinamide]
8.48 | 7.17 | 7.92 | ≤ 5.00 | C[C@H]1C[C@@H](c2ccncc2NC(=O)c2ccc(F)c(-c3ccc(C#N)cc3F)n2)C[C@@H](O)[C@]1(C)O [Example 54, 6-(4-cyano-2-fluorophenyl)-N-(4-((1R,3R,4R,5S)-3,4-dihydroxy-4,5-dimethylcyclohexyl)pyridin-3-yl)-5-fluoropicolinamide]
9.40 | 9.00 | 8.85 | 6.06 | CC[C@]1(O)[C@H](O)C[C@H](c2ccncc2NC(=O)c2nc(-c3c(F)cccc3F)ccc2N)C[C@@H]1C [Example 32, 3-amino-6-(2,6-difluorophenyl)-N-(4-((1R,3R,4R,5S)-4-ethyl-3,4-dihydroxy-5-methylcyclohexyl)pyridin-3-yl) picolinamide]
8.85 | 7.96 | 8.46 | ≤ 5.00 | C[C@H]1C[C@@H](c2ccncc2NC(=O)c2ccc(F)c(-c3c(F)ccc(C#N)c3F)n2)C[C@@H](O)[C@]1(C)O [Example 46, 6-(3-cyano-2,6-difluorophenyl)-N-(4-((1R,3R,4R,5S)-3,4-dihydroxy-4,5-dimethylcyclohexyl)pyridin-3-yl)-5-fluoropicolinamide]
9.30 | 8.96 | 8.74 | 6.24 | CC[C@]1(O)[C@H](O)C[C@H](c2ccncc2NC(=O)c2nc(-c3c(F)cccc3F)c(F)cc2N)C[C@@H]1C [Example 33, 3-amino-6-(2,6-difluorophenyl)-N-(4-((1R,3R,4R,5S)-4-ethyl-3,4-dihydroxy-5-methylcyclohexyl)pyridin-3-yl)-5-fluoropicolinamide]
7.90 | 6.13 | 6.66 | ≤ 5.00 | C[C@@H]1C[C@H](c2ccncc2NC(=O)c2ccc(F)c(-c3c(F)ccc(N)c3F)n2)C[C@H](O)[C@@]1(C)O [Example 55, 6-(3-amino-2,6-difluorophenyl)-N-(4-((1S,3S,4S,5R)-3,4-dihydroxy-4,5-dimethylcyclohexyl)pyridin-3-yl)-5-fluoropicolinamide]
9.15 | 8.11 | 8.64 | 5.37 | C[C@H]1C[C@@H](c2ccncc2NC(=O)c2nc(-c3ncccc3Cl)ccc2N)C[C@@H](O)[C@]1(C)O [Example 144, 5-amino-3′-chloro-N-(4-((1R,3R,4R,5S)-3,4-dihydroxy-4,5-dimethylcyclohexyl)pyridin-3-yl)-2,2′-bipyridine-6-carboxamide]
9.40 | 8.70 | 8.70 | 5.81 | CC(=O)OC[C@]1(O)[C@H](O)C[C@H](c2ccncc2NC(=O)c2ccc(F)c(-c3c(F)cccc3F)n2)C[C@@H]1C [Example 43, ((1S,2R,4R,6S)-4-(3-(6-(2,6-difluorophenyl)-5-fluoropicolinamido)pyridin-4-yl)-1,2-dihydroxy-6-methylcyclohexyl) methylacetate]
9.22 | 8.89 | 8.77 | 6.21 | CC[C@]1(O)[C@H](O)C[C@H](c2ccncc2NC(=O)c2nc(-c3c(F)cccc3F)ncc2N)C[C@@H]1C [Example 34, 5-amino-2-(2,6-difluorophenyl)-N-(4-((1R,3R,4R,5S)-4-ethyl-3,4-dihydroxy-5-methylcyclohexyl)pyridin-3-yl) pyrimidine-4-carboxamide]
